The supplement of paper PMC11451515

System: SEM cells
Assay: cell viability relative to DMSO control; higher = less cytotoxic
Details: 48 h
Summary of the method: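 Three leukemia lines were tested: NOMO1 and SEM at 500 cells/well and P12-Ichikawa at 1000 cells/well. Each was adapted for at least four passages in each medium and seeded in 5 μl in 1536-well plates, and library compounds in DMSO were pin-dosed from 47 μM to 0.79 nM in 11 threefold steps. After 48 h at 37°C, CellTiter-Glo One luminescence was read. Viability is a percentage relative to DMSO wells on each plate, with cell-free wells as background.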

[1] = HPLM + 10% dialyzed FBS, 0.000781 µM
[2] = HPLM + 10% dialyzed FBS, 0.00234 µM
[3] = HPLM + 10% dialyzed FBS, 0.00702 µM
[4] = HPLM + 10% dialyzed FBS, 0.0211 µM
[5] = HPLM + 10% dialyzed FBS, 0.0632 µM
[6] = HPLM + 10% dialyzed FBS, 0.19 µM
[7] = HPLM + 10% dialyzed FBS, 0.569 µM
[8] = HPLM + 10% dialyzed FBS, 1.71 µM
[9] = HPLM + 10% dialyzed FBS, 5.12 µM
[10] = HPLM + 10% dialyzed FBS, 15.4 µM
[11] = HPLM + 10% dialyzed FBS, 46.1 µM
[12] = RPMI 5 mM glucose + 10% FBS, 0.000781 µM
[13] = RPMI 5 mM glucose + 10% FBS, 0.00234 µM
[14] = RPMI 5 mM glucose + 10% FBS, 0.00702 µM
[15] = RPMI 5 mM glucose + 10% FBS, 0.0211 µM
[16] = RPMI 5 mM glucose + 10% FBS, 0.0632 µM
[17] = RPMI 5 mM glucose + 10% FBS, 0.19 µM
[18] = RPMI 5 mM glucose + 10% FBS, 0.569 µM
[19] = RPMI 5 mM glucose + 10% FBS, 1.71 µM
[20] = RPMI 5 mM glucose + 10% FBS, 5.12 µM
[21] = RPMI 5 mM glucose + 10% FBS, 15.4 µM
[22] = RPMI 5 mM glucose + 10% FBS, 46.1 µM
[23] = RPMI 5 mM glucose + 10% dialyzed FBS, 0.000781 µM
[24] = RPMI 5 mM glucose + 10% dialyzed FBS, 0.00234 µM
[25] = RPMI 5 mM glucose + 10% dialyzed FBS, 0.00702 µM
[26] = RPMI 5 mM glucose + 10% dialyzed FBS, 0.0211 µM
[27] = RPMI 5 mM glucose + 10% dialyzed FBS, 0.0632 µM
[28] = RPMI 5 mM glucose + 10% dialyzed FBS, 0.19 µM
[29] = RPMI 5 mM glucose + 10% dialyzed FBS, 0.569 µM
[30] = RPMI 5 mM glucose + 10% dialyzed FBS, 1.71 µM
[31] = RPMI 5 mM glucose + 10% dialyzed FBS, 5.12 µM
[32] = RPMI 5 mM glucose + 10% dialyzed FBS, 15.4 µM
[33] = RPMI 5 mM glucose + 10% dialyzed FBS, 46.1 µM

Row | SMILES | cell viability [1] [%] | cell viability [2] [%] | cell viability [3] [%] | cell viability [4] [%] | cell viability [5] [%] | cell viability [6] [%] | cell viability [7] [%] | cell viability [8] [%] | cell viability [9] [%] | cell viability [10] [%] | cell viability [11] [%] | cell viability [12] [%] | cell viability [13] [%] | cell viability [14] [%] | cell viability [15] [%] | cell viability [16] [%] | cell viability [17] [%] | cell viability [18] [%] | cell viability [19] [%] | cell viability [20] [%] | cell viability [21] [%] | cell viability [22] [%] | cell viability [23] [%] | cell viability [24] [%] | cell viability [25] [%] | cell viability [26] [%] | cell viability [27] [%] | cell viability [28] [%] | cell viability [29] [%] | cell viability [30] [%] | cell viability [31] [%] | cell viability [32] [%] | cell viability [33] [%]
1 | Cn1c(CNc2ccc(C(=N)N)cc2)nc2cc(C(=O)N(CCC(=O)O)c3ccccn3)ccc21 | 87.6 | 96.3 | 95.2 | 106 | 101 | 103 | 102 | 117 | 104 | 121 | 116 | 73.1 | 99.2 | 98.6 | 97.6 | 102 | 96.6 | 99.6 | 93.2 | 95.6 | 110 | 103 | 65.6 | 98 | 95.8 | 114 | 110 | 104 | 97.7 | 122 | 120 | 118 | 119
2 | C\C1=C(\C=C(\C#N)C(=O)N1)C2=CC=NC=C2 | 82.7 | 86.9 | 91.6 | 104 | 101 | 113 | 99.3 | 111 | 96.7 | 126 | 113 | 109 | 92.5 | 113 | 109 | 121 | 112 | 108 | 112 | 84.9 | 122 | 97.8 | 115 | 101 | 111 | 130 | 118 | 117 | 96.4 | 109 | 105 | 109 | 114
3 | O=C(Nc1c(Cl)cncc1Cl)c1ccc(OC(F)F)c(OCC2CC2)c1 | 93.8 | 90.5 | 94.2 | 96.8 | 105 | 102 | 109 | 110 | 100 | 90.6 | 107 | 86.3 | 93.9 | 107 | 82 | 90.4 | 97.4 | 95.4 | 93.6 | 93.5 | 101 | 103 | 92.4 | 90.5 | 102 | 87.6 | 96.6 | 94.3 | 102 | 111 | 101 | 85.8 | 85.7
4 | CC(C)C(=O)Oc1ccc(CO)cc1[C@H](CCN(C(C)C)C(C)C)c1ccccc1 | 34.1 | 81.6 | 97.9 | 80.4 | 74.6 | 83.3 | 82.8 | 81 | 82.3 | 76.2 | 72.4 | 32.5 | 92.1 | 91.8 | 99.3 | 74.4 | 92.5 | 81.7 | 67.5 | 101 | 80.3 | 89.5 | 35.5 | 91.9 | 92.2 | 95.3 | 74.9 | 89.4 | 97.8 | 85.7 | 114 | 96.2 | 99.8
5 | CC(C)C[C@@H](C=O)NC(=O)[C@H](CC(C)C)NC(=O)[C@H](CC(C)C)NC(=O)OCc1ccccc1 | 108 | 115 | 126 | 122 | 148 | 139 | 81.8 | 9.69 | 9.22 | 8.52 | 8.11 | 111 | 131 | 124 | 143 | 124 | 127 | 10.8 | 9.94 | 10 | 9.17 | 8.59 | – | – | – | – | – | – | – | – | – | – | –
6 | NC(=O)c1ccc(I)c([N+](=O)[O-])c1 | 104 | 127 | 108 | 126 | 126 | 130 | 133 | 124 | 123 | 117 | 123 | 106 | 124 | 131 | 137 | 137 | 143 | 145 | 156 | 120 | 104 | 111 | 97.6 | 113 | 124 | 118 | 123 | 112 | 116 | 131 | 115 | 103 | 99.8
7 | CCC(C)(C)c1ccc(CC(C)CN2C[C@@H](C)O[C@@H](C)C2)cc1 (stereo partly drawn) | 69 | 62.1 | 88.1 | 87.3 | 72.2 | 64.7 | 74.7 | 75.5 | 84.1 | 67.8 | 74.3 | 80 | 67.6 | 87.1 | 79.9 | 89.4 | 36.3 | 91.8 | 86.6 | 84.5 | 71.9 | 76.8 | 71 | 67.1 | 94.5 | 91.7 | 83.4 | 78.6 | 114 | 82.9 | 89.7 | 67.9 | 78
8 | Cc1cc2c(F)c(Oc3ncnn4cc(OC[C@@H](C)O)c(C)c34)ccc2[nH]1 | 107 | 108 | 101 | 102 | 106 | 104 | 88.7 | 83.2 | 70.5 | 38.6 | 26.6 | 117 | 117 | 141 | 124 | 110 | 99.4 | 100 | 85.3 | 77.6 | 39.7 | 26.2 | 87.5 | 92.6 | 103 | 102 | 92.9 | 89.3 | 92.4 | 79.3 | 70.3 | 26 | 13.7
